Experimental data: patent US9714231B2, “Pyrrolidine GPR40 modulators” (BRISTOL-MYERS SQUIBB COMPANY, priority 2012, dated 2017)
pEC50: −log10 of the molar value. Where a name gives a salt, the structure may show the parent alone. Read-outs that look alike come from different tables or passages of the source.

Columns and labels:
human GPR40 [1] = target: T1, human GPR40 (Homo sapiens, UniProt O14842)
human GPR40 [2] = target: T1, human GPR40; assay: FDSS-based intracellular calcium assay (Human GRP40 in vitro assay); format: cell-based; set-up: 3xFLAG; expressed in transfected cells; conditions: cells expressing GPR40, intracellular Ca2+ response, FDSS reader; read-out: hGPR40 EC50
How it was run: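 GPR40-expressing cells, plated overnight in serum-free phenol red-free DMEM, loaded with Fluo-3 in HBSS with 1.7 mM probenecid for 30 min at 37° C. Compounds in DMSO, diluted in assay buffer, added as 3× solutions; intracellular Ca^2+ response read on FDSS.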

T1 sequence (O14842 whole entry): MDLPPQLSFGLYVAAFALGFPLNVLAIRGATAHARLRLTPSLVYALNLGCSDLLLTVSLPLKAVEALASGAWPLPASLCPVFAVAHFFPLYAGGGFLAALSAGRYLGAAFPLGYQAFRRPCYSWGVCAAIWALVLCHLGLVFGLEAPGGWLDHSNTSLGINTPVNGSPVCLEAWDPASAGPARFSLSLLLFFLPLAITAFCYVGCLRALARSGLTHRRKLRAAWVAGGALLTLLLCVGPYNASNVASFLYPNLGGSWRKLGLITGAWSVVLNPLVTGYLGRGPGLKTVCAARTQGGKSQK

pEC50 (human GPR40 [1])	pEC50 (human GPR40 [2])	SMILES
7.66	6.64	COc1cc(N2CCC(Oc3ccc(N4C[C@H](OC)C[C@@H]4CC(=O)O)c(F)c3)C(C)C2)c(Cl)cn1 (stereo partly drawn) [Example 139, 2-((2R,4R)-1-(4-((3,4-trans)-1-(5-Chloro-2-methoxypyridin-4-yl)-3-methylpiperidin-4-yloxy)-2-fluorophenyl)-4-methoxypyrrolidin-2-yl)acetic acid]
7.14	6.60	COc1cc(N2CCC(Oc3ccc(N4C[C@H](C(F)(F)F)C[C@@H]4CC(=O)O)c(F)c3F)C(C)C2)c(Cl)cn1 (stereo partly drawn) [Example 140, 2-((2R,4R)-1-(4-((3,4-trans)-1-(5-Chloro-2-methoxypyridin-4-yl)-3-methylpiperidin-4-yloxy)-2,3-difluorophenyl)-4-(trifluoromethyl)pyrrolidin-2-yl)acetic acid]
7.51	6.57	COc1cc(N2CCC(Oc3ccc(N4C[C@H](OC)C[C@@H]4CC(=O)O)cc3F)C(C)C2)c(Cl)cn1 (stereo partly drawn) [Example 142, 2-((2R,4R)-1-(4-((3,4-trans)-1-(5-Chloro-2-methoxypyridin-4-yl)-3-methylpiperidin-4-yloxy)-3-fluorophenyl)-4-methoxypyrrolidin-2-yl)acetic acid, TFA]
5.60	5.47	COc1cc(N2CCC(Oc3cc(F)c(N4C[C@H](OC)C[C@@H]4CC(=O)O)c(F)c3)C(C)C2)c(Cl)cn1 (stereo partly drawn) [Example 144, 2-((2R,4R)-1-(4-((3,4-trans)-1-(5-Chloro-2-methoxypyridin-4-yl)-3-methylpiperidin-4-yloxy)-2,6-difluorophenyl)-4-methoxypyrrolidin-2-yl)acetic acid, TFA]
